{"source": "ChEMBL document CHEMBL1127258", "about": "“Structurally simplified squalestatins: monocyclic 1,3-dioxane analogues” (Bioorg Med Chem Lett, 1994)", "target": "T1, Squalene synthase (Rattus norvegicus, UniProt Q02769)", "T1 sequence (Q02769 whole entry)": "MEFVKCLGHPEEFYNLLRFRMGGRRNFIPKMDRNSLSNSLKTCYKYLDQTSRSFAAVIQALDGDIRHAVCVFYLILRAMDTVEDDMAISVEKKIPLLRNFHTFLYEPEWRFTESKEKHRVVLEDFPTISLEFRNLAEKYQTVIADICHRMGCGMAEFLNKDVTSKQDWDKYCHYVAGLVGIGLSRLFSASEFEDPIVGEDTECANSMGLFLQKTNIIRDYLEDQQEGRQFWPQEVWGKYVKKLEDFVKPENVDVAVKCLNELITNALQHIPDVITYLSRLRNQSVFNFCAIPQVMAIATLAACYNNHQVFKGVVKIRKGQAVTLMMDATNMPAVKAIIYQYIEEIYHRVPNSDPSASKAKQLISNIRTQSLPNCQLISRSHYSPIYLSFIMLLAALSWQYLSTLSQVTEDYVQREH", "assay": "In vitro inhibitory concentration against squalene synthase from male rat liver microsomes", "type": "tissue-based", "data": [{"smiles": "C=C(CC[C@]1(C(N)=O)O[C@H](C(=O)O)[C@@](O)(C(=O)O)[C@](COC(C)=O)(C(=O)O)O1)[C@@H](OC(C)=O)[C@H](C)Cc1ccccc1", "values": [{"measurement": "IC50", "value": 0.27, "unit": "µM"}]}, {"smiles": "C=C(CC[C@]12O[C@H](C(=O)O)[C@@](O)(C(=O)O)[C@](C(=O)O)(O1)C(O)OC2O)[C@@H](OC(C)=O)[C@H](C)Cc1ccccc1", "note": "(stereo not given in full)", "values": [{"measurement": "IC50", "value": 0.039, "unit": "µM"}]}, {"smiles": "C=C(CC[C@@]12CC[C@@](C(=O)O)(O1)[C@](O)(C(=O)O)[C@@H](C(=O)O)O2)[C@@H](OC(C)=O)[C@H](C)Cc1ccccc1", "values": [{"measurement": "IC50", "value": 0.057, "unit": "µM"}]}, {"smiles": "C=C(CC[C@@]12O[C@H](C(=O)O)[C@@](O)(C(=O)O)[C@@](C(=O)O)(COC1=O)O2)[C@@H](OC(C)=O)[C@H](C)Cc1ccccc1", "values": [{"measurement": "IC50", "value": 0.2, "unit": "µM"}]}, {"smiles": "C=C(CC[C@]1(C(N)=O)O[C@H](C(=O)O)[C@@](O)(C(=O)O)[C@](COC(=O)/C=C/[C@@H](C)C[C@@H](C)CC)(C(=O)O)O1)[C@@H](OC(C)=O)[C@H](C)Cc1ccccc1", "values": [{"measurement": "IC50", "value": 0.011, "unit": "µM"}]}]}
